# Measured values as given in article PMC10066322 (Scientific Reports, 2023).
# Target: T1, PARN1-430 (Homo sapiens, UniProt O95453)
# T1 construct: expression of the C-terminal truncated protein (1-430 aa of PARN) was soluble; His tag (from the pCold I vector); made in house; host or cells: E. coli Rosetta 2 DE
# T1 sequence (O95453 1-430): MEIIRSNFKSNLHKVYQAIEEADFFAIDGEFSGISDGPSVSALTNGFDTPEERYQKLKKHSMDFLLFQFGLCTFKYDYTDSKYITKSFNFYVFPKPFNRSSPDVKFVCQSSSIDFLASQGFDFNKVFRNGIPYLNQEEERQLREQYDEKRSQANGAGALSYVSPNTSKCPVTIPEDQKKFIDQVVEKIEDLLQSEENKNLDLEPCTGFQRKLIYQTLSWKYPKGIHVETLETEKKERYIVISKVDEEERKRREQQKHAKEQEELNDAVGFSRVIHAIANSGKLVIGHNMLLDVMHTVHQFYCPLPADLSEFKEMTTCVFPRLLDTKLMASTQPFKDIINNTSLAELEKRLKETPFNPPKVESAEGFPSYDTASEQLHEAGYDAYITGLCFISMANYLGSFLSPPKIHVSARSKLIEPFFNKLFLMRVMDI
# Assay: Gel assay of poly(A) RNA shortening by PARN1-430
# Assay type: biochemical
# Settings: not given
# Experimental: PARN1-430 was incubated with a fluorescently labeled RNA with a CCUUUCC sequence followed by a 9 nucleotide-long poly(A) tail and the reaction product was visualized on denaturing acrylamide gels. We observed that PARN removed the 3′ oligo(A) tail from the RNA substrate (Fig. 2c and d). […] Moreover, we observed that PARN is inhibited when treated with adenosine monophosphate (AMP), as has been reported previously.
# 1 µL of protein (73 nM as final concentration) (stock protein is diluted in 1× lysis buffer (HEPES KOH, pH 7.4, 30 mM, KOAc 100 mM, and Mg(Oac)2 2 mM) was added to 4 µL of 2.5× reaction buffer (Tris–HCl pH 7.4, 10 mM, KCl 50 mM, MgCl2 5 mM). If drug was added, reaction was pre-incubated with drugs for 10 min before 5 µL of RNA (5 µM as final concentration) was added. The reaction was incubated at 37 °C for 20 min. After the incubation, the reaction was either diluted with 2× loading buffer and heated to 95 °C for 5 min for gel or quenched by adding 10 µL of quencher solution (30 µM of 3′-BHQ labeled quench DNA in 1% SDS). Quenched reaction was incubated at room temperature for 10–60 min and fluorescence was measured using Fluorescein wavelength measurement.
# 15% TBE-Urea gel (Thermo Fisher Scientific) was prerun at 20W for 30 min. RNAs from the reaction was loaded into 15% TBE gels and run at 300 V for 35 min. The gel was visualized using iBright (Invitrogen FL1500).
row,"inhibitory effect on PARN1-430, gel assay",Compound
1,inhibited,"Nc1ncnc2c1ncn2[C@@H]1O[C@H](COP(=O)(O)O)[C@@H](O)[C@H]1O [AMP, adenosine monophosphate]"

# Same assay, conditions: 20 μM compound
row,Compound,inhibition of PARN on gels
1,O=C(Nc1ncnc2c1ncn2[C@@H]1O[C@H](CO)C[C@H](F)[C@H]1O)c1ccccc1 [TH18],"could inhibit PARN at 20 μM, except for TH18"

# Target: T1, PARN1-430
# Assay: Inhibition fluorescence assay (FAM-RNA / BHQ quencher deadenylase assay)
# Assay type: biochemical
# Settings: 2.5 mM AMP, PARN1-430 73 nM
# Experimental: To easily screen compounds for inhibition of PARN activity, we developed an assay in which fluorescence was used as the readout for monitoring PARN1-430’s activity (Fig. 3a). This assay was modeled on a similar assay developed for Caf1/CNOT7 deadenylase. In this assay, PARN1-430 was incubated with a 5′-fluorescently labeled oligoadenylated RNA. In the absence of deadenylation, this substrate RNA can effectively hybridize to a complementary DNA oligonucleotide with a quencher on its 3′ end leading to a loss of fluorescence (Fig. 3a). When the RNA substrate is deadenylated, the quenching oligonucleotide is no longer able to stably hybridize leading to an increase in fluorescence in the reaction.
# Figure 3 Developing a fluorescence assay for PARN inhibition. (a) Cartoon depicting the inhibition fluorescence assay. Schematic diagram of the fluorescence-based deadenylase assay. The assay is based on a 5′ FAM-labelled RNA oligonucleotide substrate. After incubation of the substrate in the presence of PARN1-430, the reaction is stopped and a 3′ BHQ-labelled DNA oligonucleotide probe complementary to the RNA substrate is added. The fluorescence of intact substrate is quenched upon probe hybridization because of the proximity of the BHQ […]. In contrast, the BHQ-labelled probe cannot hybridize to the FAM-labelled reaction product allowing detection of FAM fluorescence. […] 2-way ANOVA, multiple comparisons test, average ± SD, n = 3 replicates. *P < 0.05, **P < 0.005, ***P < 0.001, ****P < 0.0001, n.s. was not indicated. […] Dotted-line represents RNA and RNA + Quencher data. One-way ANOVA, multiple comparisons test, average ± SD, n ≥ 3 replicates. *P < 0.05, **P < 0.005, ***P < 0.001, ****P < 0.0001, n.s. was not indicated. (d) PARN1-430 and PARNmut enzymatic activity measured at different time points. […] Dotted-line represents RNA and RNA + Quencher data. 2-way ANOVA, multiple comparisons test, average ± SD, n = 3 replicates. *P < 0.05, **P < 0.005, ***P < 0.001, ****P < 0.0001, n.s. was not indicated.
# Quenched reaction was incubated at room temperature for 10–60 min and fluorescence was measured using Fluorescein wavelength measurement.
row,"inhibition of PARN1-430, fluorescence assay",Compound
1,effectively inhibited,"Nc1ncnc2c1ncn2[C@@H]1O[C@H](COP(=O)(O)O)[C@@H](O)[C@H]1O [AMP, adenosine monophosphate]"

# Same assay, conditions: computational docking compounds; fluorescence assay and gels; PARN1-430 pretreated with drug 10 min
row,PARN inhibitor in vitro,Compound
1,No,NC(=O)c1ncn([C@@H]2O[C@H](CO)[C@@H](O)[C@H]2O)c1N [AICAR]
2,No,CCn1nc(C2CCN(C(=O)CCO)CC2)nc1-c1cnc(N)c(-c2nnc(C(C)(C)C)o2)n1 [AZD8835]
3,Yes,Nc1nc(Cl)nc2c1ncn2[C@H]1C[C@H](O)[C@@H](CO)O1 [Cladribine]
4,No,Nc1nc(Cl)nc2c1ncn2[C@@H]1O[C@H](CO)[C@@H](O)[C@@H]1F [Clofarabine]
5,No,Nc1ncnc2c1ncn2[C@H]1O[C@@H](CO)[C@H](O)[C@@H]1O [L-adenosine]
6,Yes,CNC(=O)c1cnn(-c2nc(N)c3ncn([C@@H]4O[C@H](CO)[C@@H](O)[C@H]4O)c3n2)c1 [Regadenoson]
7,Yes,COc1nc(N)c2ncn([C@@H]3O[C@H](CO)[C@@H](O)[C@H]3O)c2n1 [Spongosine]
8,No,Nc1cccc(-c2cc3c(Oc4cccc(O)c4)ncnc3[nH]2)c1 [TWS119]
9,No,Nc1ncnc2c1ncn2[C@@H]1O[C@H](CO)[C@@H](O)[C@@H]1O [Vidarabine]

row,Compound,PARN inhibitor in vitro
1,"Nc1ncnc2c1c(I)cn2C1OC(CO)C(O)C1O (stereo not shown) [5-ITU, 5-Iodotubercidin]",No
2,Nc1ncnc2c1c(Br)cn2[C@@H]1O[C@H](CO)[C@@H](O)[C@H]1O [5-bromotubercidine],No
3,Nc1ncnc2c1ccn2[C@@H]1O[C@H](CO)[C@@H](O)[C@H]1O [Tubercidine],Yes

# Target: T2, PARN (Homo sapiens, UniProt O95453)
# T2 construct: expression of the C-terminal truncated protein (1-430 aa of PARN) was soluble; His tag (from the pCold I vector); made in house; host or cells: E. coli Rosetta 2 DE
# T2 sequence (O95453 1-430): T1 sequence (O95453 1-430)
# Assay: not given
# Settings: cited from earlier work
Compound,Ki,PARN inhibitor in vitro,concentration at which PARN1-430 is inhibited
"O=C(Nc1ncnc2c1ncn2[C@@H]1O[C@H](CO)C[C@H](F)[C@H]1O)c1ccccc1 [A2, 9-(3′,4′, dideoxy-3′-fluoro-β-d-glucopyranosyl)-N6-benzoyl adenine]",510 ± 52 µM,Yes,
"O=C(Nc1ncnc2c1ncn2[C@@H]1O[C@H](CO)C[C@H](F)[C@H]1O)c1ccccc1 [A6, 1-(3′,4′, dideoxy-3′-fluoro-β-d-glucopyranosyl)-N4-benzoyl adenine]",210 ± 45 µM,Yes,
"Nc1ncnc2c1ncn2[C@@H]1O[C@H](COP(=O)(O)O)[C@@H](O)[C@H]1O [AMP, adenosine monophosphate]",,,> 1 mM
OC[C@H]1OC(O)[C@H](O)[C@@H](F)[C@@H]1O (stereo partly shown) [B6],,Yes,
"O=c1[nH]c(=O)n([C@@H]2O[C@H](CO)[C@@H](O)[C@H](F)[C@H]2O)cc1F [FU1, 1-(3′-deoxy-3′-fluoro-β-d-glucopyranosyl) 5-fluorouracil]",98 ± 12 µM,Yes,
NC[C@H]1O[C@H](O[C@H]2[C@H](O)[C@@H](O[C@H]3O[C@H](CO)[C@@H](O)[C@H](N)[C@H]3O)[C@H](N)C[C@@H]2N)[C@H](N)[C@@H](O)[C@@H]1O [Kanamycin B],7.3 ± 0.4 µM,Yes,
NC[C@@H]1O[C@H](O[C@H]2[C@@H](O)[C@H](O[C@@H]3[C@@H](O)[C@H](N)C[C@H](N)[C@H]3O[C@H]3O[C@H](CO)[C@@H](O)C[C@H]3N)O[C@@H]2CO)[C@H](N)[C@@H](O)[C@@H]1O[C@H]1O[C@H](CO)[C@@H](O)[C@H](O)[C@@H]1O [Lividomycin],18.7 ± 2.8 µM,Yes,
NC[C@@H]1O[C@H](O[C@H]2[C@@H](O)[C@H](O[C@@H]3[C@@H](O)[C@H](N)C[C@H](N)[C@H]3O[C@H]3O[C@H](CN)[C@@H](O)[C@H](O)[C@H]3N)O[C@@H]2CO)[C@H](N)[C@@H](O)[C@@H]1O [Neomycin B],0.4 ± 0.1 µM,Yes,
NC[C@@H]1O[C@H](O[C@H]2[C@@H](O)[C@H](O[C@@H]3[C@@H](O)[C@H](N)C[C@H](N)[C@H]3O[C@H]3O[C@H](CO)[C@@H](O)[C@H](O)[C@H]3N)O[C@@H]2CO)[C@H](N)[C@@H](O)[C@@H]1O [Paromomycin],17.3 ± 3.5 µM,Yes,
"Cc1cn([C@@H]2O[C@H](CO)[C@@H](O)[C@H](F)[C@H]2O)c(=O)[nH]c1=O [T1, 1-(3′-deoxy-3′-fluoro-β-d-glucopyranosyl) thymine]",135 ± 18 µM,Yes,
NC[C@H]1O[C@H](O[C@H]2[C@H](O)[C@@H](O[C@H]3O[C@H](CO)[C@@H](O)[C@H](N)[C@H]3O)[C@H](N)C[C@@H]2N)[C@H](N)C[C@@H]1O [Tobramycin],7.1 ± 0.2 µM,Yes,
"O=c1ccn([C@@H]2O[C@H](CO)[C@@H](O)[C@H](F)[C@H]2O)c(=O)[nH]1 [U1, 1-(3′-deoxy-3′-fluoro-β-d-glucopyranosyl) uracil]",19 ± 5 µM,Yes,
Kanamycin A,,Yes,

# Target: T2, PARN
# Assay: High-throughput screening fluorescence assay with 8-point IC50 curves
# Assay type: biochemical
# Settings: high-throughput screening hits; 8 points 1:3 dilution, top 100 µM
# Experimental: To identify PARN inhibitors in a high-throughput manner, 24,000 compounds from the Enamine kinase library were tested in a HTS utilizing the fluorescence assay (Fig. 3a).
# 2 µL of protein (100 nM final concentration) (stock protein was diluted in 1× lysis buffer (HEPES KOH, pH 7.4, 30 mM, KOAc 100 mM, and Mg(OAc)2 2 mM) was added to wells using offline Multidrop Combi nL. The reaction was pre-incubated with 12.5 nL of Sygnature library (Enamine kinase library (HBL-24) (31.25 μM) for 15 min before 2 µL of RNA (10 µM) was added (DMSO was added to control wells using Echo 655). The reaction was incubated at 22 °C for 20 min in Cytomat automatic incubator. After the incubation, the reaction was quenched by adding 4 µL of quencher solution (30 µM of 3′-BHQ labeled quench DNA in 1% SDS) using Multidrop Combi nL. The quenched reaction was incubated at room temperature for 10 min and fluorescence was measured using PHERAstar FSX (λ485/520). For the counter screen, no protein was added to the reaction.
# Curves were fitted within Genedata using SmartFit algorithm.
row,IC50,Compound
1,0.2 µM,O=C(Nc1ncnc2c1ncn2[C@@H]1O[C@H](CO)C[C@H](F)[C@H]1O)c1ccccc1 [TH18]

# System: PARN activity in Hela cells
# Assay: miR-21-5p levels in Hela cells by northern blotting (PARN inhibition in cells)
# Assay type: cell-based, human
# Settings: 10 µM, 2 days
# Experimental: 48 h after transfection/drug treatment, cells were collected for either RNA or protein analysis.
# Total RNA was extracted from cell lysates using TriZol as per manufacturer’s protocol and DNAse treated. After quantification on Nanodrop, total RNA was separated on an acrylamide 7 M Urea gel. RNA was transferred to a nylon membrane (Nytran SPC, GE Healthcare) using semiwet transfer. After UV/EDC crosslinking, the blot was pre-hybridized and hybridized in PerfectHyb Plus Hybridization Buffer (Sigma Aldrich) at 42 °C. Northern probes have been previously described[11],[48]. After hybridization and washing in 2 × SSC 0.1% SDS wash buffer, blots were exposed to a cassette and imaged on a Typhoon FLA 9500 Phosphoimager. Band intensities were quantified using ImageJ and normalized to the U1 levels under each condition.
row,Compound,PARN inhibitor in cells
1,O=C(Nc1ncnc2c1ncn2[C@@H]1O[C@H](CO)C[C@H](F)[C@H]1O)c1ccccc1 [TH18],No
